In patent US20190046490A1, “METHODS OF TREATING LACTOSE INTOLERANCE” (Nogra Pharma Limited, priority 2016, published 2019):

Tests used:
[1] = biological target: T1, PPARγ bound to DR2 PPRE of the LCT gene promoter (Homo sapiens, UniProt P37231); assay: Chromatin immunoprecipitation of PPARγ on the LCT gene promoter in Caco-2 cells; type: cell-based; conditions: 1 mM, 24 hours
T1 construct: Chromatin immunoprecipitation (ChIP) experiments in Caco-2 cells (5×10^6 cells) stimulated for 24 hours with 1 mM GED; endogenous in cells; host or cells: Caco-2 (colonic adenocarcinoma) cells
T1 sequence (P37231 1-505): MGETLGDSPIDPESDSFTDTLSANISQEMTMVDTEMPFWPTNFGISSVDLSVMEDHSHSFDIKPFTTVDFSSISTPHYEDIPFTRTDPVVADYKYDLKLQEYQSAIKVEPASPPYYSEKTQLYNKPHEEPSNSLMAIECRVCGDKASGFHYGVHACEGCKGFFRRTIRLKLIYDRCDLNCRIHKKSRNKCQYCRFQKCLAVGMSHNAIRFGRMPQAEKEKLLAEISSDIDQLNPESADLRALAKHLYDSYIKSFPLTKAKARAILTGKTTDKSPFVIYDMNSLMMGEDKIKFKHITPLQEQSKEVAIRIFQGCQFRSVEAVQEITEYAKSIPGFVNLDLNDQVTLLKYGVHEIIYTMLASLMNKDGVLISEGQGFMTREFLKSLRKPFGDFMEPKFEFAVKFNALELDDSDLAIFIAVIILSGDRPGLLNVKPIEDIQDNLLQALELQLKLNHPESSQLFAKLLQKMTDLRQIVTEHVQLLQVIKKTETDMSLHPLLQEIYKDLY
T1 sequence (P19793 1-462 partner): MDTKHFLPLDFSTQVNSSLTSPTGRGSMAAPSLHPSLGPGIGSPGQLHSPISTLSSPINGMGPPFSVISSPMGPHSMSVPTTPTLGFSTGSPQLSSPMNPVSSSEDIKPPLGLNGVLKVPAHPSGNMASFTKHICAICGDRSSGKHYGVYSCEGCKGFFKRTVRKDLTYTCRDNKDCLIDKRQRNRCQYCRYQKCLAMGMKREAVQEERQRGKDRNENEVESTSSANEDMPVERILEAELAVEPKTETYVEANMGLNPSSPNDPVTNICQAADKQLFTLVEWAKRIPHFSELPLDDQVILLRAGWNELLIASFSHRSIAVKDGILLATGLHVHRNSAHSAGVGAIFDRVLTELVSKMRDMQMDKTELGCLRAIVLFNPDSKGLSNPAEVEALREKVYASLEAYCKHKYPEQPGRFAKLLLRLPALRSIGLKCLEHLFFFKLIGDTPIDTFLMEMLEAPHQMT
Method: The physical binding of PPARγ onto the LCT gene promoter was studied by Chromatin immunoprecipitation (ChIP) experiments in Caco-2 cells (5×10^6 cells) stimulated for 24 hours with 1 mM GED in 100 mm cell culture petri dishes. Caco-2 cells were synchronized by the addition of serum-free medium for 16 hours and then stimulated for 24 hours using the protocol described previously. Cells were then rinsed with PBS and the protein-DNA complexes were fixed by adding 1% PFA for 30 minutes at room temperature. This binding was stopped by the addition of glycine (0.125M). Cells were collected by scraping in the presence of cold PBS and protease inhibitors (Sigma). The cell pellet obtained by centrifugation was taken up in 300 μl SDS buffer (1% SDS, 10 mM EDTA, 50 mM Tris-HCl pH 8, protease inhibitors) and sonicated (Diagenode, BioruptorUCD200TM-EX) for 30 seconds, followed by 30 seconds resting time. For each immunoprecipitation, 125 μL of crosslinked sonicated sample was diluted with 225 μl of IP buffer (1% triton X-100, 150 mM NaCl, 2 mM EDTA, 20 mM Tris-HCl pH 8.1 and protease inhibitors) and pre-cleared for four hours by adding 40 μL of protein A/G beads (50% slurry protein A/G Sepharose, Clinisciences) and 5 μg of salmon sperm DNA (Invitrogen). […] DNA was then purified using the PCR Clean-up kit (Macherey-Nagel) and analyzed by PCR.

[2] = test system: weaned rats fed with a lactose-enriched diet; assay: Symptoms associated with lactose intolerance in weaned rats fed a lactose-enriched diet; type: in vivo; conditions: rats on lactose-enriched diet
Method: Animal experiments were performed in the accredited Pasteur Institute animal care facility (Institut Pasteur de Lille, France; n° B59-35009) according to governmental guidelines (n° 2010/63/UE; Décret 2013-118) and animal ethics committee approval. Specific pathogen-free male C57BL/6 mice and Sprague-Dawley rats were obtained from Janvier Labs (France). Mice and rats were housed 5 animals/cage and 3 animals/cage, respectively, in a specific pathogen-free facility, in an air-conditioned room with controlled temperature (22±1° C.), humidity (65-70%), and 12 h light/12 h dark cycles. Animals were fed with standard laboratory chow (except when indicated) and were provided with autoclaved tap water ad libitum. Animals were acclimatized for at least 1 week before entering the study.
In addition, the effect of GED on the symptoms associated with lactose intolerance was evaluated in weaned rats fed with a lactose-enriched diet provided by Ssniff Spezialdiäten GmbH (Soest, Germany). Animals were monitored daily, weighed, and stool consistencies were evaluated.
SCFA were extracted and measured as described in […], which is incorporated herein by reference.

COC(Cc1ccc(N)cc1)C(=O)O (stereo not drawn) [GED, 3-(4′-aminophenyl)2-methoxypropionic acid]
increase of the amount of PPARγ bound to the DR2 PPRE compared to unstimulated cells [1]: 2 fold
concentration of short-chain fatty acids (SCFA) in caecal contents ([2]; day 4): significant decrease
caecum volume compared to untreated rats ([2]; sacrificed at day 4, data not shown): significant decrease
